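Dose response: 5 concentrations. Exposure: 48 h. Format: 96-well plates. Endpoint: linear interpolation; highest concentration if not reached. GI50: concentration for 50% inhibition of growth.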 Active and inactive are the calls of the source. Cut-off read from the data, not from the text of the source: active = GI50 up to about 1.1 µM and inactive = higher. Square brackets hold non-standard residues; d marks the D form. Peptide text beside a SMILES is read from it. pGlu = O=C1CC[CH](C(=O)O)N1

The values that follow come from ChEMBL document CHEMBL1201862, “PubChem BioAssay data set” (2004).

Among the test systems are NCI/ADR-RES; SNB-19; HCT-15; OVCAR-5; DU-145; CAKI-1; K562; SW-620; EKVX; SF-295; UACC-257; A549; OVCAR-4; Hs-578T; SR; A498; NCI-H23; COLO 205.
Common to all, as to experiment: DTP human tumour cell line panel, 48 h

As usually defined, the GI50 is the concentration giving 50% growth inhibition. For `CCN1C(c2ccccc2)=CC(c2ccccc2)(C(Cl)(Cl)Cl)C=C1c1ccccc1`, the GI50 is 40.1 µM (inactive) in the assay with NCI/ADR-RES; 4.46 µM (inactive) in the assay on SNB-19; 42.9 µM in the assay with HCT-15; 15.1 µM (inactive) with OVCAR-5; 14.8 µM (inactive) in the assay with DU-145; 30.8 µM (inactive) with CAKI-1. Moreover, the GI50 was 2.52 µM (inactive) with K562; 7.82 µM (inactive) in the assay with SW-620; 4.22 µM (inactive) in the assay on EKVX; 32.5 µM (inactive) in the assay on SF-295; 4.56 µM (inactive) with UACC-257; 32.4 µM (inactive) with A549. The GI50 in the assay with OVCAR-4 is 24 µM (inactive); with Hs-578T, 25.7 µM (inactive); with SR, > 10 µM (inactive); with A498, 17.3 µM (inactive); with NCI-H23, 8.81 µM (inactive).
With `Cc1cc(=O)oc2c(CNC(CC(C)C)C(=O)O)c(O)ccc12` (stereo not given), the GI50 in the assay with NCI/ADR-RES was > 100 µM (inactive); in the assay with COLO 205, > 100 µM (inactive); with SNB-19 it was > 100 µM (inactive); in the assay on HCT-15, greater than 100 µM; with OVCAR-5, > 100 µM (inactive); in the assay on DU-145, > 100 µM (inactive). Further, the GI50 with CAKI-1, with K562, in the assay with SW-620, in the assay on EKVX, in the assay with SF-295 and in the assay with UACC-257 was > 100 µM (inactive) each time. Further, the GI50 in the assay on A549, in the assay on OVCAR-4, in the assay on Hs-578T, in the assay with SR and in the assay with NCI-H23 was > 100 µM (inactive) in each case.
As for `CN(C)Cc1cc(C(=O)/C=C/c2cccc(Cl)c2)cc(CN(C)C)c1O`, the GI50 with NCI/ADR-RES was 18.5 µM (inactive); in the assay on COLO 205, 1.77 µM (inactive); in the assay on SNB-19 it was 24.5 µM (inactive); in the assay with HCT-15, 2.84 µM; with OVCAR-5, 5.69 µM (inactive); in the assay on DU-145, 6.3 µM (inactive). The GI50 was 1.68 µM (inactive) with CAKI-1; 2.91 µM (inactive) in the assay on K562; 4.41 µM (inactive) with SW-620; 7.03 µM (inactive) with EKVX; 13.5 µM (inactive) in the assay on SF-295; 5.56 µM (inactive) in the assay on UACC-257. The GI50 with A549 was 11.8 µM (inactive); with Hs-578T it was 11.4 µM (inactive); in the assay on SR, 2.28 µM (inactive); with A498, 3.22 µM (inactive); in the assay on NCI-H23 it was 14.3 µM (inactive).
With `CC(NC(=O)C(Cc1c[nH]cn1)NC(=O)C1CCC(=O)N1)C(N)=O` (stereo not drawn) ([pGlu]-His-Ala-NH2; configuration not given here), the GI50 is > 10 µM (inactive) in the assay with NCI/ADR-RES; > 100 µM (inactive) with COLO 205; > 100 µM (inactive) with SNB-19; > 100 µM (inactive) with OVCAR-5; > 100 µM (inactive) with DU-145; > 100 µM (inactive) with K562. Also, the GI50 in the assay on SW-620, in the assay with EKVX, in the assay with SF-295, in the assay with A549, with Hs-578T and in the assay with SR was > 100 µM (inactive) in each case. In the assay on NCI-H23, the GI50 is > 100 µM (inactive).
With `Cc1[nH]n(C(=N)N)c(=O)c1CCO`, the GI50 is 2.76 µM (inactive) with NCI/ADR-RES; > 100 µM (inactive) with COLO 205; > 100 µM (inactive) in the assay on SNB-19; greater than 100 µM with HCT-15; > 100 µM (inactive) in the assay on OVCAR-5; > 100 µM (inactive) in the assay on DU-145. In addition, the GI50 with CAKI-1, in the assay on K562, in the assay on SW-620, in the assay with SF-295, with UACC-257 and with A549 was > 100 µM (inactive) throughout. The GI50 in the assay with OVCAR-4 was > 100 µM (inactive); in the assay on Hs-578T it was > 100 µM (inactive); in the assay on SR it was 17.1 µM (inactive); in the assay on A498, > 100 µM (inactive); in the assay on NCI-H23, > 100 µM (inactive).
With `O=C1c2ccccc2CC12Cc1cc3c(cc1C2=O)CCC3` (stereo not given), the GI50 with NCI/ADR-RES was > 100 µM (inactive); in the assay on SNB-19, > 100 µM (inactive); in the assay on HCT-15 it was greater than 100 µM; with OVCAR-5, > 100 µM (inactive); in the assay on DU-145, > 100 µM (inactive); in the assay on CAKI-1 it was > 100 µM (inactive). The GI50 in the assay on K562, with SW-620, with EKVX, in the assay with SF-295, in the assay with UACC-257 and in the assay with A549 was > 100 µM (inactive) in each case. For the same compound, the GI50 in the assay on OVCAR-4, in the assay on Hs-578T, in the assay with SR, in the assay with A498 and in the assay on NCI-H23 was > 100 µM (inactive) in each case.
For the compound `COC(=O)c1ccc(/C=C(\c2ccc([N+](=O)[O-])o2)S(=O)(=O)c2ccc(NC(C)=O)cc2)o1`, the GI50 in the assay with NCI/ADR-RES was 14.2 µM (inactive); with COLO 205, 2.9 µM (inactive); in the assay on SNB-19, 16.9 µM (inactive); in the assay with HCT-15, 2.45 µM; with OVCAR-5 it was 3.8 µM (inactive); with DU-145 it was 10.1 µM (inactive). For the same compound, the GI50 is 15.4 µM (inactive) with CAKI-1; 4.15 µM (inactive) with K562; 3.63 µM (inactive) in the assay on SW-620; 11.9 µM (inactive) with EKVX; 17.5 µM (inactive) with SF-295; 1.98 µM (inactive) in the assay with UACC-257. Besides, the GI50 in the assay with A549 is 16.7 µM (inactive); in the assay on OVCAR-4, 2.22 µM (inactive); with Hs-578T it was 2.1 µM (inactive); with SR, 1.77 µM (inactive); in the assay on NCI-H23, 13.9 µM (inactive).
`Cc1ccc([N+](=O)[O-])cc1S(=O)(=O)Nc1ccc(C2=NN(c3ccc([N+](=O)[O-])cc3[N+](=O)[O-])C(c3cccs3)C2)cc1` (stereo not given): the GI50 with NCI/ADR-RES is 17.2 µM (inactive); with COLO 205, 23.2 µM (inactive); in the assay with SNB-19 it was 27.9 µM (inactive); in the assay on HCT-15, 15.4 µM; in the assay on OVCAR-5, 43.9 µM (inactive); in the assay on DU-145, 25.8 µM (inactive). For the same compound, the GI50 in the assay with CAKI-1 is 25.5 µM (inactive); in the assay on K562 it was 17.2 µM (inactive); with SW-620, 35.7 µM (inactive); with EKVX it was 15.8 µM (inactive); in the assay on SF-295, 25.6 µM (inactive); in the assay on UACC-257 it was 16 µM (inactive). Besides, the GI50 with A549 was 19.5 µM (inactive); in the assay with OVCAR-4, 18.5 µM (inactive); in the assay with Hs-578T, 23.8 µM (inactive); in the assay with SR it was 21 µM (inactive); with NCI-H23, 18.7 µM (inactive).
For `O=C1C(Br)=C(Br)C(=O)c2c(O)ccc(O)c21`, the GI50 in the assay with NCI/ADR-RES was 12.2 µM (inactive); with COLO 205, 1.09 µM (active); in the assay on SNB-19 it was 18.3 µM (inactive); with HCT-15, 2.19 µM; in the assay on OVCAR-5 it was 17 µM (inactive); in the assay on DU-145 it was 12.1 µM (inactive). The GI50 with K562 is 0.596 µM (active); in the assay with SW-620, 1.33 µM (inactive); in the assay on EKVX it was 20.7 µM (inactive); in the assay on SF-295, 17.8 µM (inactive); with UACC-257, 5.43 µM (inactive); in the assay on A549, 19.3 µM (inactive). The GI50 in the assay on OVCAR-4 is 3.6 µM (inactive); in the assay on Hs-578T, 27.1 µM (inactive); in the assay with SR, 0.0352 µM (active); with A498, 21.7 µM (inactive); in the assay on NCI-H23 it was 4.67 µM (inactive).
As to `CCC(Cc1cnc2nc(N)nc(N)c2n1)c1ccc(C(=O)NC(CCC(=O)O)C(=O)O)cc1` (stereo not given), the GI50 is 0.000711 µM (active) with NCI/ADR-RES; 3.24 µM (inactive) in the assay with COLO 205; 0.00419 µM (active) with SNB-19; 0.000632 µM in the assay on HCT-15; 0.01 µM (active) in the assay with OVCAR-5; 0.000548 µM (active) in the assay with DU-145. Besides, the GI50 in the assay with CAKI-1 is 0.01 µM (active); in the assay with K562 it was < 0.0001 µM (active); with SW-620, 0.000176 µM (active); in the assay on EKVX, 0.000249 µM (active); with SF-295, 0.01 µM (active); in the assay on UACC-257, 0.103 µM (active). Further, the GI50 in the assay with A549 was 0.000507 µM (active); with Hs-578T it was 10.7 µM (inactive); in the assay with SR, 0.01 µM (active); in the assay on A498, > 100 µM (inactive); in the assay with NCI-H23 it was 0.000621 µM (active).
Regarding `O=c1cccccc1O` [TROPOLONE], the GI50 in the assay with NCI/ADR-RES was 39.6 µM (inactive); in the assay on COLO 205, 39.6 µM (inactive); in the assay on SNB-19 it was > 100 µM (inactive); with HCT-15 it was 34 µM; in the assay on OVCAR-5, > 100 µM (inactive); with DU-145, > 100 µM (inactive). In addition, the GI50 is 83.6 µM (inactive) with CAKI-1; 35.3 µM (inactive) in the assay with K562; 45.5 µM (inactive) with SW-620; > 100 µM (inactive) with EKVX; 93.3 µM (inactive) with SF-295; > 100 µM (inactive) in the assay with UACC-257. Also, the GI50 with A549 is > 100 µM (inactive); in the assay with OVCAR-4, 94 µM (inactive); in the assay with Hs-578T, 91.8 µM (inactive); with SR it was 46.7 µM (inactive); with NCI-H23, > 100 µM (inactive).
For the compound `Brc1ccc(-c2ccc(-c3ccc(Br)s3)s2)s1`, the GI50 with NCI/ADR-RES was > 100 µM (inactive); with COLO 205, > 100 µM (inactive); in the assay with SNB-19, > 100 µM (inactive); in the assay on HCT-15 it was greater than 100 µM; in the assay on OVCAR-5 it was > 100 µM (inactive); with DU-145 it was > 100 µM (inactive). The GI50 with K562, in the assay on SW-620, in the assay with EKVX, in the assay with SF-295, in the assay on UACC-257 and in the assay with A549 was > 100 µM (inactive) throughout. For the same compound, the GI50 in the assay with OVCAR-4, in the assay with Hs-578T, with SR, with A498 and in the assay with NCI-H23 was > 100 µM (inactive) throughout.
